{"source": "the CombiSolv-Exp solvation set (Vermeire and Green 2021)", "assay": "solvent given as SMILES", "data": [{"smiles": "O=C(O)Cc1ccc(O)cc1", "values": [{"measurement": "solvation free energy, 298 K", "setting": "in CCOC(C)=O", "value": -13.6, "unit": "kcal/mol"}, {"measurement": "solvation free energy, 298 K", "setting": "in O", "value": -13, "unit": "kcal/mol"}]}, {"smiles": "Cc1ccc(CO)cc1", "values": [{"measurement": "solvation free energy, 298 K", "setting": "in O", "value": -7.12, "unit": "kcal/mol"}]}, {"smiles": "COc1ccccc1O", "values": [{"measurement": "solvation free energy, 298 K", "setting": "in O", "value": -5.67, "unit": "kcal/mol"}]}, {"smiles": "c1ccc(CCc2ccccc2)cc1", "values": [{"measurement": "solvation free energy, 298 K", "setting": "in CCCCCCCCO", "value": -8.8, "unit": "kcal/mol"}]}, {"smiles": "FC(F)(Cl)C(F)(Cl)Cl", "values": [{"measurement": "solvation free energy, 298 K", "setting": "in C1CCOC1", "value": -3.37, "unit": "kcal/mol"}, {"measurement": "solvation free energy, 298 K", "setting": "in CC(C)=O", "value": -3.31, "unit": "kcal/mol"}, {"measurement": "solvation free energy, 298 K", "setting": "in CCC(C)=O", "value": -3.36, "unit": "kcal/mol"}, {"measurement": "solvation free energy, 298 K", "setting": "in CCOC(C)=O", "value": -3.4, "unit": "kcal/mol"}, {"measurement": "solvation free energy, 298 K", "setting": "in COC(C)(C)C", "value": -3.62, "unit": "kcal/mol"}, {"measurement": "solvation free energy, 298 K", "setting": "in COC(C)=O", "value": -3.38, "unit": "kcal/mol"}, {"measurement": "solvation free energy, 298 K", "setting": "in Cc1cccc(C)c1", "value": -3.37, "unit": "kcal/mol"}, {"measurement": "solvation free energy, 298 K", "setting": "in ClC(Cl)(Cl)Cl", "value": -3.27, "unit": "kcal/mol"}, {"measurement": "solvation free energy, 298 K", "setting": "in ClC(Cl)Cl", "value": -3.46, "unit": "kcal/mol"}, {"measurement": "solvation free energy, 298 K", "setting": "in ClCCCl", "value": -2.8, "unit": "kcal/mol"}, {"measurement": "solvation free energy, 298 K", "setting": "in O", "value": 1.77, "unit": "kcal/mol"}]}, {"smiles": "c1ccc(N=Nc2ccccc2)cc1", "values": [{"measurement": "solvation free energy, 298 K", "setting": "in CCCCCCCCC=CCCCCCCCC(=O)OCC(COC(=O)CCCCCCCC=CCCCCCCCC)OC(=O)CCCCCCCC=CCCCCCCCC", "value": -11.2, "unit": "kcal/mol"}, {"measurement": "solvation free energy, 298 K", "setting": "in O", "value": -4.82, "unit": "kcal/mol"}]}, {"smiles": "O=C(O)CCCC(=O)O", "values": [{"measurement": "solvation free energy, 298 K", "setting": "in O", "value": -12.7, "unit": "kcal/mol"}, {"measurement": "solvation free energy, 298 K", "setting": "in O=C1CCCCC1", "value": -12.1, "unit": "kcal/mol"}]}, {"smiles": "CCCCCC(=O)CC(=O)CCCCC", "values": [{"measurement": "solvation free energy, 298 K", "setting": "in O", "value": -3.68, "unit": "kcal/mol"}]}, {"smiles": "FC(Cl)Cl", "values": [{"measurement": "solvation free energy, 298 K", "setting": "in CN1CCCC1=O", "value": -1.34, "unit": "kcal/mol"}, {"measurement": "solvation free energy, 298 K", "setting": "in CN(C)C=O", "value": -1.35, "unit": "kcal/mol"}, {"measurement": "solvation free energy, 298 K", "setting": "in O", "value": 1.54, "unit": "kcal/mol"}]}, {"smiles": "CCCCCCCCCCCCC", "values": [{"measurement": "solvation free energy, 298 K", "setting": "in O", "value": 4.12, "unit": "kcal/mol"}]}, {"smiles": "CCSC", "values": [{"measurement": "solvation free energy, 298 K", "setting": "in O", "value": -1.5, "unit": "kcal/mol"}]}, {"smiles": "CCOC(C)(C)C", "values": [{"measurement": "solvation free energy, 298 K", "setting": "in C1CCCCC1", "value": -4.12, "unit": "kcal/mol"}, {"measurement": "solvation free energy, 298 K", "setting": "in CC(=O)N(C)C", "value": -3.53, "unit": "kcal/mol"}, {"measurement": "solvation free energy, 298 K", "setting": "in CCCCCC", "value": -4.07, "unit": "kcal/mol"}, {"measurement": "solvation free energy, 298 K", "setting": "in CCCCCCC", "value": -3.98, "unit": "kcal/mol"}, {"measurement": "solvation free energy, 298 K", "setting": "in CCCCCCCCO", "value": -3.67, "unit": "kcal/mol"}, {"measurement": "solvation free energy, 298 K", "setting": "in CCCCN(C=O)CCCC", "value": -3.6, "unit": "kcal/mol"}, {"measurement": "solvation free energy, 298 K", "setting": "in CCN1CCCC1=O", "value": -3.42, "unit": "kcal/mol"}, {"measurement": "solvation free energy, 298 K", "setting": "in CCN(CC)C(C)=O", "value": -3.66, "unit": "kcal/mol"}, {"measurement": "solvation free energy, 298 K", "setting": "in CCNC(C)=O", "value": -3.49, "unit": "kcal/mol"}, {"measurement": "solvation free energy, 298 K", "setting": "in CCNC=O", "value": -3.38, "unit": "kcal/mol"}, {"measurement": "solvation free energy, 298 K", "setting": "in CCOCC", "value": -4.22, "unit": "kcal/mol"}, {"measurement": "solvation free energy, 298 K", "setting": "in CN1CCCCC1=O", "value": -3.44, "unit": "kcal/mol"}, {"measurement": "solvation free energy, 298 K", "setting": "in CN(C)C=O", "value": -3.31, "unit": "kcal/mol"}, {"measurement": "solvation free energy, 298 K", "setting": "in CNC(C)=O", "value": -3.4, "unit": "kcal/mol"}, {"measurement": "solvation free energy, 298 K", "setting": "in CNC=O", "value": -3.21, "unit": "kcal/mol"}, {"measurement": "solvation free energy, 298 K", "setting": "in CO", "value": -4.07, "unit": "kcal/mol"}, {"measurement": "solvation free energy, 298 K", "setting": "in O", "value": -1.61, "unit": "kcal/mol"}]}, {"smiles": "CF", "values": [{"measurement": "solvation free energy, 298 K", "setting": "in CCCO", "value": 0.03, "unit": "kcal/mol"}, {"measurement": "solvation free energy, 298 K", "setting": "in O", "value": -0.22, "unit": "kcal/mol"}]}, {"smiles": "C=C1CCC2CC3C(C)CCC13C2(C)C", "note": "(stereo unspecified)", "values": [{"measurement": "solvation free energy, 298 K", "setting": "in O", "value": 0.83, "unit": "kcal/mol"}]}]}
